Reference: US20170275270A1, “BENZYL SUBSTITUTED INDAZOLES” (Bayer Pharma Aktiengesellschaft, priority 2014, published 2017)
Where two headings read alike, the source gives them in different places. One block for each compound: values may come before it.

How the values were obtained:
[1] = test system: HeLa human cervical tumor cells; assay: Proliferation assay (HeLa+Paclitaxel); details: read-out: Biological Assay 3: HeLa + Paclitaxel IC50, 3 nM paclitaxel, crystal violet;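 note: compounds at 0.001-10 µM added 4 h after paclitaxel, 92 h exposure, absorbance normalized to zero-point plate (0%) and untreated cells (100%), IC50 from 4-parameter fit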
Experimental: Proliferation Assay (HeLa+Paclitaxel):
Cultivated HeLa human cervical tumor cells (DSMZ ACC-57) were plated at a density of 3000 cells/well in a 96-well multititer plate in 200 μL of growth medium supplemented 10% fetal calf serum. After 24 hours, the cells of one plate (zero-point plate) were stained with crystal violet (see below). The medium of the other plates was supplemented with 3 nM of paclitaxel (Sigma-Aldrich) and the cells were incubated at 37° C. After 4 hours the test substances were added in various concentrations (0 μM, as well as in the range of 0.001-10 μM; the final concentration of the solvent dimethyl sulfoxide was adjusted to 0.1%) using a Hewlett-Packard HP D300 Digital Dispenser. The cells were incubated for another 92 hours at 37° C. in the presence of test substances. Cell proliferation was determined by staining the cells with crystal violet: the cells were fixed by adding 20 μL/measuring point of an 11% glutaric aldehyde solution for 15 minutes at room temperature. After three washing cycles of the fixed cells with water, the plates were dried at room temperature. The cells were stained by adding 100 μL/measuring point of a 0.1% crystal violet solution (pH 3.0). After three washing cycles of the stained cells with water, the plates were dried at room temperature. The dye was dissolved by adding 100 μL/measuring point of a 10% acetic acid solution. […] The change of cell number, in percent, was calculated by normalization of the measured values to the absorbtion values of the zero-point plate (=0%) and the absorbtion of the untreated (0 μm) cells (=100%). The IC50 values were determined by means of a 4 parameter fit.

HeLa = assay: Proliferation assay (HeLa cell line); details: Homo sapiens, 96 h, read-out: Biological Assay 2: Proliferation assay (HeLa cell line) median IC50;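 note: crystal violet staining of cell number, scaled between a plate stained before dosing (0%) and cells left untreated (100%), compounds tested at 0.001-10 µM, IC50 via 4-parameter fit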
[2] = molecular target: T1, catalytic domain of human Bub1 (amino acids 704-1085) (Homo sapiens, UniProt O43683); assay: Bub1 kinase assay (TR-FRET); type: biochemical
T1 construct: catalytic domain of human Bub1 (amino acids 704-1085); His6 (N); made in house; host or cells: Hi5 insect cells
In short: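 TR-FRET read-out (Eu-anti-mouse IgG/anti-phosphoserine antibody to streptavidin-XL665 on biotinylated peptide) after EDTA stop and 1 h complex formation at 22° C. Kinase reaction ran 60 min at 22° C with 1:3.4 serial dilutions from 2 mM DMSO stocks. IC50 from 4-parameter logistic fit of normalized inhibition.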

[3] = 10 μM ATP, read-out: Biological Assay 1: Bub1 kinase assay median IC50
[4] = Biological Assay 1: Bub1 kinase assay median IC50, 10 μM ATP

T1 sequence (O43683 704-1085): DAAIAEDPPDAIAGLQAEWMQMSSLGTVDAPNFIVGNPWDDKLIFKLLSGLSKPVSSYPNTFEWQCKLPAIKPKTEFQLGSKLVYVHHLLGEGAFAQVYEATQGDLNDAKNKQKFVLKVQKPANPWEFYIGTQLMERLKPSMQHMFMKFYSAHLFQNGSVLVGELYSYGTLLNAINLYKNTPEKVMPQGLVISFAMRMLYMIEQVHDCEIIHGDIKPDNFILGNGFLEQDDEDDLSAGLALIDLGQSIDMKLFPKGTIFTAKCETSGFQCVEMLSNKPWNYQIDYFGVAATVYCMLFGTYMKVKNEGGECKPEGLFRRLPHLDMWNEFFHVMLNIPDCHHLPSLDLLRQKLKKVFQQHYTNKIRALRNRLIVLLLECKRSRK

Structure (SMILES): CCOc1cc(F)c(Cn2nc(-c3nc4c(c(Nc5cc(OC)ncn5)n3)CCC4)c3ccccc32)c(F)c1 [Example 2-12-26, 2-[1-(4-ethoxy-2,6-difluorobenzyl)-1H-indazol-3-yl]-N-(6-methoxypyrimidin-4-yl)-6,7-dihydro-5H-cyclopenta[d]pyrimidin-4-amine]
IC50 [1]: 1 µM | IC50 (HeLa): 8 µM | IC50 [2, 4]: 0.13 µM

Structure (SMILES): CCOc1cc(F)c(Cn2nc(-c3nc4c(c(Nc5cc(C)nc(C)n5)n3)CCC4)c3ccccc32)c(F)c1 [Example 2-12-27, N-(2,6-dimethylpyrimidin-4-yl)-2-[1-(4-ethoxy-2,6-difluorobenzyl)-1H-indazol-3-yl]-6,7-dihydro-5H-cyclopenta[d]pyrimidin-4-amine]
IC50 [1]: 0.21 µM | IC50 (HeLa): 3.1 µM | IC50 [2, 4]: 0.61 µM

Structure (SMILES): COCCOc1cc(F)c(Cn2nc(-c3nc4c(c(Nc5ccncc5OC)n3)CCC4)c3ccccc32)c(F)c1 [Example 2-12-31, 2-{1-[2,6-difluoro-4-(2-methoxyethoxy)benzyl]-1H-indazol-3-yl}-N-(3-methoxypyridin-4-yl)-6,7-dihydro-5H-cyclopenta[d]pyrimidin-4-amine]
IC50 [1]: 0.08 µM | IC50 (HeLa): 3.9 µM | IC50 [2, 4]: 0.013 µM

Structure (SMILES): COCCOc1cc(F)c(Cn2nc(-c3nc(CN4CCOCC4)cc(Nc4ccnnc4)n3)c3ccccc32)c(F)c1 [Example 2-12-39, N-[2-{1-[2,6-difluoro-4-(2-methoxyethoxy)benzyl]-1H-indazol-3-yl}-6-(morpholin-4-ylmethyl)pyrimidin-4-yl]pyridazin-4-amine]
IC50 [1]: 0.77 µM | IC50 (HeLa): > 10 µM | IC50 [2, 4]: 0.026 µM

Structure (SMILES): COCCOc1cc(F)c(Cn2nc(-c3nc(CN4CCOCC4)cc(Nc4ccncc4C)n3)c3ccccc32)c(F)c1 [Example 2-12-41, 2-{1-[2,6-difluoro-4-(2-methoxyethoxy)benzyl]-1H-indazol-3-yl}-N-(3-methylpyridin-4-yl)-6-(morpholin-4-ylmethyl)pyrimidin-4-amine]
IC50 [1]: 0.12 µM | IC50 (HeLa): 3.5 µM | IC50 [2, 4]: 0.0088 µM

Structure (SMILES): COCCOc1cc(F)c(Cn2nc(-c3nc(CN4CCOCC4)cc(Nc4ccncc4OC)n3)c3ccccc32)c(F)c1 [Example 2-12-42, 2-{1-[2,6-difluoro-4-(2-methoxyethoxy)benzyl]-1H-indazol-3-yl}-N-(3-methoxypyridin-4-yl)-6-(morpholin-4-ylmethyl)pyrimidin-4-amine]
IC50 [1]: 0.24 µM | IC50 (HeLa): 3.4 µM | IC50 [2, 4]: 0.016 µM

Structure (SMILES): CCOc1cc(F)c(Cn2nc(-c3nc(CN4CCOCC4)cc(Nc4cc(C)nc(C)n4)n3)c3ccccc32)c(F)c1 [Example 2-12-44, N-(2,6-dimethylpyrimidin-4-yl)-2-[1-(4-ethoxy-2,6-difluorobenzyl)-1H-indazol-3-yl]-6-(morpholin-4-ylmethyl)pyrimidin-4-amine]
IC50 [1]: 0.089 µM | IC50 (HeLa): 9.6 µM | IC50 [2, 4]: 0.32 µM

Structure (SMILES): CCOc1cc(F)c(Cn2nc(-c3nc(CN4CCOCC4)cc(Nc4cc(O)ncn4)n3)c3ccccc32)c(F)c1 [Example 2-12-45, 6-({2-[1-(4-ethoxy-2,6-difluorobenzyl)-1H-indazol-3-yl]-6-(morpholin-4-ylmethyl)pyrimidin-4-yl}amino)pyrimidin-4-ol]
IC50 [1]: 0.38 µM | IC50 (HeLa): > 10 µM | IC50 [2, 4]: 0.76 µM

More lines, now with the values ahead:

IC50 [1]: 0.63 µM | IC50 (HeLa): 3.4 µM | IC50 [2, 3]: 0.0096 µM
Structure (SMILES): COc1cnccc1Nc1nc(-c2nn(Cc3c(F)cc(OCCO)cc3F)c3ccccc23)ncc1C1CC1 [Example 2-6-36, 2-{4-[(3-{5-cyclopropyl-4-[(3-methoxypyridin-4-yl)amino]pyrimidin-2-yl}-1H-indazol-1-yl)methyl]-3,5-difluorophenoxy} ethanol]

IC50 [1]: 1.5 µM | IC50 (HeLa): 7 µM | IC50 [2, 4]: 0.055 µM
Structure (SMILES): Cc1nccc(Nc2nc(-c3nn(Cc4c(F)cc(OCCO)cc4F)c4ccccc34)nc3c2CN(CC(F)(F)F)C3)n1 [Example 2-6-39, 2-{3,5-difluoro-4-[(3-{4-[(2-methylpyrimidin-4-yl)amino]-6-(2,2,2-trifluoroethyl)-6,7-dihydro-5H-pyrrolo[3,4-d]pyrimidin-2-yl}-1H-indazol-1-yl)methyl]phenoxy}ethanol]

IC50 [1]: 0.12 µM | IC50 (HeLa): 3.4 µM | IC50 [2, 4]: 0.02 µM
Structure (SMILES): CCOc1cc(F)c(Cn2nc(-c3ncc(C4CN(CC(F)(F)F)C4)c(Nc4ccncc4)n3)c3ccccc32)c(F)c1 [Example 2-11-2, 2-[1-(4-ethoxy-2,6-difluorobenzyl)-1H-indazol-3-yl]-N-(pyridin-4-yl)-5-[1-(2,2,2-trifluoroeth-yl)azetidin-3-yl]pyrimidin-4-amine]

IC50 [1]: 0.29 µM | IC50 (HeLa): 5.3 µM | IC50 [2, 4]: 0.0094 µM
Structure (SMILES): CCOc1cc(F)c(Cn2nc(-c3nc4c(c(Nc5ccnc(NC(=O)C6CC6)c5)n3)CCC4)c3ccccc32)c(F)c1 [Example 2-12-28, N-[4-({2-[1-(4-ethoxy-2,6-difluorobenzyl)-1H-indazol-3-yl]-6,7-dihydro-5H-cyclopenta[d]pyrimidin-4-yl}amino)pyridin-2-yl]cyclopropanecarbox-amide]

IC50 [1]: 0.14 µM | IC50 (HeLa): 8.6 µM | IC50 [2, 4]: 0.06 µM
Structure (SMILES): COCCOc1cc(F)c(Cn2nc(-c3nc4c(c(Nc5ccncc5Cl)n3)CCC4)c3ccccc32)c(F)c1 [Example 2-12-30, N-(3-chloropyridin-4-yl)-2-{1-[2,6-difluoro-4-(2-methoxyethoxy)benzyl]-1H-indazol-3-yl}-6,7-dihydro-5H-cyclopenta[d]pyrimidin-4-amine]

IC50 [1]: 0.53 µM | IC50 (HeLa): > 10 µM | IC50 [2, 4]: 0.33 µM
Structure (SMILES): CCOc1cc(F)c(Cn2nc(-c3nc4c(c(Nc5cc(Cl)ncn5)n3)CCC4)c3ccccc32)c(F)c1 [Example 2-12-32, N-(6-chloropyrimidin-4-yl)-2-[1-(4-ethoxy-2,6-difluorobenzyl)-1H-indazol-3-yl]-6,7-dihydro-5H-cyclopenta[d]pyrimidin-4-amine]

IC50 [1]: 0.11 µM | IC50 (HeLa): 8.8 µM | IC50 [2, 4]: 3 µM
Structure (SMILES): CCOc1cc(F)c(Cn2nc(-c3nc(CN4CCOCC4)cc(Nc4ncncc4C)n3)c3ccccc32)c(F)c1 [Example 2-12-38, 2-[1-(4-ethoxy-2,6-difluorobenzyl)-1H-indazol-3-yl]-N-(5-methylpyrimidin-4-yl)-6-(morpholin-4-ylmethyl)pyrimidin-4-amine]

IC50 [1]: 0.25 µM | IC50 (HeLa): 3.6 µM | IC50 [2, 4]: 0.0096 µM
Structure (SMILES): COCCOc1cc(F)c(Cn2nc(-c3nc(CN4CCOCC4)cc(Nc4ccncc4)n3)c3ccccc32)c(F)c1 [Example 2-12-43, 2-{1-[2,6-difluoro-4-(2-methoxyethoxy)benzyl]-1H-indazol-3-yl}-6-(morpholin-4-ylmethyl)-N-(pyridin-4-yl)pyrimidin-4-amine]

IC50 [1]: 0.17 µM | IC50 (HeLa): 8.5 µM | IC50 [2, 4]: 0.0088 µM
Structure (SMILES): CCOc1cc(F)c(Cn2nc(-c3nc4c(c(Nc5ccnc(NC(C)=O)c5)n3)CC(C)(C)CC4)c3ccccc32)c(F)c1 [Example 2-12-69, N-[4-({2-[1-(4-ethoxy-2,6-difluorobenzyl)-1H-indazol-3-yl]-6,6-dimethyl-5,6,7,8-tetrahydroquinazolin-4-yl}amino)pyridin-2-yl]acetamide]

IC50 [1]: 1.9 µM | IC50 (HeLa): > 10 µM | IC50 [2, 3]: 0.0056 µM
Structure (SMILES): CCOc1cc(F)c(Cn2nc(-c3nc(C)cc(Nc4ccncc4OC(F)(F)F)n3)c3ccccc32)c(F)c1 [Example 2-12-79, 2-[1-(4-ethoxy-2,6-difluorobenzyl)-1H-indazol-3-yl]-6-methyl-N-[3-(trifluoromethoxy)pyr-idin-4-yl]pyrimidin-4-amine]
